System: Caco-2 cell monolayers
Assay: Caco-2 assay (permeability PappAB, PappBA, efflux ratio)
Format: in vitro ADME
Conditions: 10 μM test compound, pH 7.4
Method in brief: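 Confluent Caco-2 monolayers on filter supports, 0.25% BSA in both donor and receiver buffer; transport measured a-b and b-a. After 25-30 min preincubation at 37 °C, samples at 0, 30, 60, 90 min quantified by HPLC/MS/MS. Papp from receiver amount per time, filter area and initial donor concentration; efflux ratio = PappBA/PappAB.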

C[C@H](Oc1cc(-c2ccn(C)n2)nc(-c2onc3c2CCC[C@@]32CCCc3sc(N)c(C#N)c32)n1)[C@@H]1CCCN1C [I-21]
Caco PappAB (apical to basolateral): 5.1e-06 cm/s | Caco ER (efflux ratio PappBA/PappAB): 6.8
